# From patent publication US6313171A, “Method for preventing or treating elevated blood lipid level-related diseases by administering cinnamic acid derivatives” (Korea Research Institute of Bioscience & Biotechnology, priority 1998, dated 2001)
# Key:
# [1] = type: in vivo, rabbit (New Zealand White); conditions: rabbits, 1% cholesterol diet plus 0.1% derivative or 1 mg/kg Lovastatin, 8 weeks; for HDL/TC: Control 2.5 ± 0.4; for HDL-C (High density lipoprotein-cholesterol): Control 50 ± 11; for TG (Triglyceride): Control 170 ± 30; for TC (Total cholesterol): Control 1995 ± 472
# Method: 30 three-month-old male New Zealand White rabbits (Yeonam Horticulture and Animal Husbandry College, Korea), each weighing about 2.5 to 2.6 kg, were raised under condition of temperature 20±2° C., relative humidity 55±5%, and photoperiod 12L/12D. The rabbits were divided into 5 groups and 5 groups of rabbits were fed with 5 different diets, i.e., RC4 diet (Oriental Yeast Co., Japan) containing 1% cholesterol (Control group); 1% cholesterol plus 1 mg/kg Lovastatin® (Merck, U.S.A.) (Lovastatin group); 1% cholesterol plus 0.1% 4-hydroxycinnamic acid (4-hydroxycinnamic acid group); 1% cholesterol plus 0.1% 3,4-dihydroxycinnamic acid (3,4-dihydroxycinnamic acid group); and 1% cholesterol plus 0.1% 3,4-dihydroxyhydrocinnamic acid (3,4-dihydroxyhydrocinnamic acid group), respectively. RC4 diet comprises 7.6% moisture, 22.8% crude protein, 2.8% crude fat, 8.8% crude ash, 14.4% crude cellulose and 43.6% soluble nitrogen-free substances. Cinnamic acid derivatives were purchased from Sigma Chemical Co. (St. Louis, Mo.).
# The rabbits were fed for 8 weeks while being allowed free access to the diets and water.
# After eight weeks, the rabbits were anesthetized with an intramuscular injection of ketamine (50 mg/kg) in the femoral region and sacrificed. A blood sample was taken from the heart of each rabbit, allowed to stand for 2 hours and centrifuged at 3,000 rpm for 15 minutes and the supernatant serum was separated and stored in a freezer before use.
# The chemical analysis of blood was carried out by employing a blood chemical analyzer (CIBA Corning 550 Express, USA) to determine the changes in GOT, GPT, total cholesterol, HDL-cholesterol and triglyceride levels.
# [2] = system: main artery; assay: Analysis for fatty streak in the main artery of rabbits; type: in vivo, rabbit (New Zealand White); conditions: for macrophage-lipid complex on the arterial endothelium: FIGS. 1A-1E, control: a thick layer; for Fatty streak: proportion of total arterial area, Oil Red O, rabbits, 8 weeks, Control 80 ± 8
# Method: Cinnamic acid derivatives were purchased from Sigma Chemical Co. (St. Louis, Mo.). The rabbits were fed for 8 weeks while being allowed free access to the diets and water. The chest of each of the rabbits sacrificed in Step 2 was incised. […] The main artery was incised in the middle along the longitudinal axis and pinned to a dish. The moist artery was photographed and, then, the staining of fatty streaks was carried out in accordance with the method of […]., et al. (J. Lab. Clin. Med., 121, 103-110(1993)) as follows. A part of the incised main artery was washed three times with anhydrous propylene glycol for 2 min. and stained for 30 min. with a saturated solution of Oil Red O (ORO, Sigma Co.) dissolved in propylene glycol. Thereafter, the artery was washed twice with 85% propylene glycol for 3 min. to remove remaining staining solution and, then washed with physiological saline. The artery was photographed and the photograph was traced. The area of stained region (fatty streak region) was determined with an image analyzer (LEICA, Q-600, Germany) and its proportion (%) to the total arterial area was calculated.
# [3] = system: ACAT; assay: ACAT assay, liver microsomes of the fed rabbits; type: biochemical, rabbit; conditions: rabbits fed 0.1% in 1% cholesterol diet; Control 0
# [4] = Acute oral toxicity in ICR mice; type: in vivo, mouse
# Method: 12 seven-week-old, specific pathogen-free ICR […] mice, six female mice each weighing about 25 to 29 g and six male mice each weighing about 34 to 38 g, were kept under an environment of 22±1° C., 55±5% relative humidity and 12L/12D photoperiod. Fodder (Cheiljedang Co., mouse and rat fodder) and water were sterilized and fed to the mice.
# 4-hydroxycinnamic acid purchased from Aldrich-Sigma Chemical Co. (St. Louis, Mo., U.S.A) was dissolved in 0.5% Tween 80 to a concentration of 100 mg/ml, and the solution was orally administered to the mice in an amount of 0.2 ml per 20 g of mouse body weight. […] Further, on the 10th day, the mice were sacrificed and the internal organs were visually examined.
# [5] = Plasma cholesterol and triglyceride in two men with hyperlipidemia; type: in vivo, human; conditions: 10 mg/kg daily oral capsule, 60 days
# Method: Two men in their mid-fifties, suffered by hyperlipidemia with blood cholesterol level ranging from 230 to 270 mg/dl and blood triglyceride level ranging from 200 to 220 mg/dl, were administered with a daily oral dose of 10 mg/kg of 4-hydroxycinnamic acid in the form of a capsule for 60 days. The plasma cholesterol and triglyceride contents were determined before and after the administration.
SMILES,HDL/TC [1],HDL-C (High density lipoprotein-cholesterol) [1],TG (Triglyceride) [1],TC (Total cholesterol) [1],macrophage-lipid complex on the arterial endothelium [2],Fatty streak [2],Inhibition on ACAT activity [3],"autopsy, internal organs ([4]; oral 1,000 mg/kg, 10th day)","weight changes ([4]; oral 1,000 mg/kg, 10 day test period)","survival ([4]; oral 1,000 mg/kg, day 10)","toxicity ([4]; single oral dose 1,000 mg/kg, mice, 10 days)",reduction of plasma cholesterol content [5],reduction of plasma triglyceride content [5]
"O=C(O)/C=C/c1ccc(O)c(O)c1 [3,4-dihydroxycinnamic acid]",3.4 ± 0.4%,53 ± 13 mg/dL,139 ± 46 mg/dL,1559 ± 347 mg/dL,no or very thin layers of macrophage-lipid complex,13 ± 5%,33%,,,,,,
"O=C(O)/C=C/c1ccc(O)cc1 [4-Hydroxycinnamic acid, 4-hydroxycinnamic acid]",3.7 ± 1.3%,57 ± 28 mg/dL,167 ± 43 mg/dL,1517 ± 417 mg/dL,no or very thin layers of macrophage-lipid complex,24 ± 11%,9%,had not developed any pathological abnormality,no weight loss was observed,All the mice were alive,showed no toxicity,25%,20%
"O=C(O)CCc1ccc(O)c(O)c1 [3,4-dihydroxyhydrocinnamic acid]",6.3 ± 1.6%,80 ± 23 mg/dL,108 ± 22 mg/dL,1256 ± 150 mg/dL,no or very thin layers of macrophage-lipid complex,16 ± 1%,37%,,,,,,
